Read-outs that look alike come from different tables or passages of the source.

In this experiment the target is T1, PERK (Homo sapiens, UniProt Q9NZJ5).
T1 sequence (Q9NZJ5 30-1116): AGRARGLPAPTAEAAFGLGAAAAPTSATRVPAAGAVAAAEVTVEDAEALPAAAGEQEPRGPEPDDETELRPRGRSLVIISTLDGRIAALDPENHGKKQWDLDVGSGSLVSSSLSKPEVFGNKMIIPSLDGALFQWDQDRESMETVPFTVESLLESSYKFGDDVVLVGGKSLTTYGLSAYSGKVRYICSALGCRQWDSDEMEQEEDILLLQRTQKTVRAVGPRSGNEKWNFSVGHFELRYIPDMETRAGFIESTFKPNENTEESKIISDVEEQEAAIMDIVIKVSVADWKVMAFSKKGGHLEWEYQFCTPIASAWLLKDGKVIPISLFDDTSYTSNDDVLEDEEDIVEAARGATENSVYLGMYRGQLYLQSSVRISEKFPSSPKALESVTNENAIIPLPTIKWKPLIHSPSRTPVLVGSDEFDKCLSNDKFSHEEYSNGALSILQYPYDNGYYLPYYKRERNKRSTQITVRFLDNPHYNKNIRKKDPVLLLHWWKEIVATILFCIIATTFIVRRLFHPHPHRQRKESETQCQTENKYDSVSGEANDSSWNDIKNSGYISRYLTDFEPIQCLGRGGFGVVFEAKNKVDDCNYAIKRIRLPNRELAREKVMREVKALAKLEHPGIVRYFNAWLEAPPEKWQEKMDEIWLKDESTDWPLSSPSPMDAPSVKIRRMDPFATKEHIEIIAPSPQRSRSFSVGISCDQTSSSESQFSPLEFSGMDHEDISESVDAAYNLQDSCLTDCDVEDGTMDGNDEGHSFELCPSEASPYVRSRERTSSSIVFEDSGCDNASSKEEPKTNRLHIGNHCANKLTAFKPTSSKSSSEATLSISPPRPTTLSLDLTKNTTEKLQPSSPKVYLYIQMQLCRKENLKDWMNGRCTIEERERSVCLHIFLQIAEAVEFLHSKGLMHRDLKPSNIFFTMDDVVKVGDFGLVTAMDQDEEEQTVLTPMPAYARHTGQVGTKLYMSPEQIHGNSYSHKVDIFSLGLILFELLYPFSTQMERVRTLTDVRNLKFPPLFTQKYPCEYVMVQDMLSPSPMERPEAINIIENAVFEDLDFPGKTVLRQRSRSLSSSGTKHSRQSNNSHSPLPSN
Nature of the experiment: PERK enzyme assay (HTRF). It counts as biochemical. The conditions noted are these: at least one experimental run. In short, it runs like this:
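HTRF read-out after 2 h of EDTA-quenched reactions, detecting phospho-eIF2α with Eu/APC reagents, gave IC50 values. Reaction: 0.75 nM GST-PERK, 30–60 min compound pre-incubation (max 1% DMSO), then 60 min with 40 nM biotin-eIF2α and 500 μM ATP, HEPES pH 7.5 buffer.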

Where [1] appears, read: PERK Enzyme (500 μM ATP) IC50, read-out: PERK Activity.
The mark [2] stands for this setting: 500 μM ATP, read-out: PERK Enzyme (500 μM ATP) IC50.

`CN1C(=O)N(c2ccc(-c3cn(C4CC4)c4ncnc(N)c34)c(F)c2)CC1c1cccc(F)c1` (single isomer, unassigned) [Example 125, 1-(4-(4-amino-7-cyclopropyl-7H-pyrrolo[2,3-d]pyrimidin-5-yl)-3-fluorophenyl)-4-(3-fluorophenyl)-3-methylimidazolidin-2-one]: the IC50 under setting [1] is less than 100 nM.

Consider `CN1C(=O)N(c2ccc(-c3cn(C4CC4)c4ncnc(N)c34)c(F)c2)CC1c1cccc(F)c1` (single isomer, unassigned) [Example 126, 1-(4-(4-amino-7-cyclopropyl-7H-pyrrolo[2,3-d]pyrimidin-5-yl)-3-fluorophenyl)-4-(3-fluorophenyl)-3-methylimidazolidin-2-one], for which the IC50 under setting [1] was less than 100 nM.

On to `CN1C(=O)N(c2ccc(-c3cn(C)c4ncnc(N)c34)c(Cl)c2)CC1c1cc(F)cc(F)c1` (single isomer, unassigned) [Example 127, 1-(4-(4-amino-7-methyl-7H-pyrrolo[2,3-d]pyrimidin-5-yl)-3-chlorophenyl)-4-(3,5-difluorophenyl)-3-methylimidazolidin-2-one], for which the IC50 under setting [2] was determined as 6.1 nM and the IC50 under setting [1] was less than 100 nM.

Turning to `CN1C(=O)N(c2ccc(-c3cn(C)c4ncnc(N)c34)c(Cl)c2)CC1c1cc(F)cc(F)c1` (single isomer, unassigned) [Example 128, 1-(4-(4-amino-7-methyl-7H-pyrrolo[2,3-d]pyrimidin-5-yl)-3-chlorophenyl)-4-(3,5-difluorophenyl)-3-methylimidazolidin-2-one], the IC50 under setting [1] is less than 100 nM.

Take `CN1C(=O)N(c2ccc(-c3cn(C4CC4)c4ncnc(N)c34)c(Cl)c2)CC1c1cc(F)cc(F)c1` (single isomer, unassigned) [Example 129, 1-(4-(4-amino-7-cyclopropyl-7H-pyrrolo[2,3-d]pyrimidin-5-yl)-3-chlorophenyl)-4-(3,5-difluorophenyl)-3-methylimidazolidin-2-one]: under setting [1], the IC50 was less than 100 nM.

With `CN1C(=O)N(c2ccc(-c3cn(C4CC4)c4ncnc(N)c34)c(Cl)c2)CC1c1cc(F)cc(F)c1` (single isomer, unassigned) [Example 130, 1-(4-(4-amino-7-cyclopropyl-7H-pyrrolo[2,3-d]pyrimidin-5-yl)-3-chlorophenyl)-4-(3,5-difluorophenyl)-3-methylimidazolidin-2-one], under setting [1], the IC50 was less than 100 nM.

On to `CN1C(=O)N(c2ccc(-c3cn(C)c4ncnc(N)c34)c(F)c2)CC1c1ccc(F)c(Cl)c1` (single isomer, unassigned) [Example 133, 1-(4-(4-amino-7-methyl-7H-pyrrolo[2,3-d]pyrimidin-5-yl)-3-fluorophenyl)-4-(3-chloro-4-fluorophenyl)-3-methylimidazolidin-2-one], for which the IC50 under setting [1] was less than 100 nM.

`CN1C(=O)N(c2ccc(-c3cn(C4CC4)c4ncnc(N)c34)c(F)c2)CC1c1ccc(F)c(Cl)c1` (single isomer, unassigned) [Example 134, 1-(4-(4-amino-7-cyclopropyl-7H-pyrrolo[2,3-d]pyrimidin-5-yl)-3-fluorophenyl)-4-(3-chloro-4-fluorophenyl)-3-methylimidazolidin-2-one]: the IC50 under setting [1] is less than 100 nM.

`Cc1nc(N)c2c(-c3ccc(N4CC(c5ccc(Cl)nc5)N(C)C4=O)cc3F)cn(C)c2n1` (single isomer, unassigned) [Example 136, 1-(4-(4-amino-2,7-dimethyl-7H-pyrrolo[2,3-d]pyrimidin-5-yl)-3-fluorophenyl)-4-(6-chloropyridin-3-yl)-3-methylimidazolidin-2-one]: the IC50 under setting [1] was 100 to 1000 nM.

In the case of `CN1C(=O)N(c2ccc(-c3cn(C4CC4)c4ncnc(N)c34)c(F)c2)CC1c1ccc(F)cc1F` (single isomer, unassigned) [Example 137, 1-(4-(4-amino-7-cyclopropyl-7H-pyrrolo[2,3-d]pyrimidin-5-yl)-3-fluorophenyl)-4-(2,4-difluorophenyl)-3-methylimidazolidin-2-one], the IC50 was 17.8 nM under setting [2] and less than 100 nM under setting [1].

For the molecule `CN1C(=O)N(c2ccc(-c3cn(C)c4ncnc(N)c34)c(F)c2)CC1c1cc(F)cc(F)c1F` (single isomer, unassigned) [Example 140, 1-(4-(4-amino-7-methyl-7H-pyrrolo[2,3-d]pyrimidin-5-yl)-3-fluorophenyl)-3-methyl-4-(2,3,5-trifluorophenyl)imidazolidin-2-one], the IC50 under setting [1] is less than 100 nM.

As for `CN1C(=O)N(c2ccc(-c3cn(C)c4ncnc(N)c34)c(F)c2)CC1c1cc(F)cc(F)c1F` (single isomer, unassigned) [Example 141, 1-(4-(4-amino-7-methyl-7H-pyrrolo[2,3-d]pyrimidin-5-yl)-3-fluorophenyl)-3-methyl-4-(2,3,5-trifluorophenyl)imidazolidin-2-one], under setting [1], the IC50 was in the range of 100 to 1000 nM.

In the case of `CN1C(=O)N(c2ccc(-c3cn(C4CC4)c4ncnc(N)c34)c(F)c2)CC1c1cc(F)cc(F)c1F` (single isomer, unassigned) [Example 142, 1-(4-(4-amino-7-cyclopropyl-7H-pyrrolo[2,3-d]pyrimidin-5-yl)-3-fluorophenyl)-3-methyl-4-(2,3,5-trifluorophenyl)imidazolidin-2-one], the IC50 under setting [1] is less than 100 nM.

`CN1C(=O)N(c2ccc(-c3cn(C4CC4)c4ncnc(N)c34)c(F)c2)CC1c1cc(F)cc(F)c1F` (single isomer, unassigned) [Example 143, 1-(4-(4-amino-7-cyclopropyl-7H-pyrrolo[2,3-d]pyrimidin-5-yl)-3-fluorophenyl)-3-methyl-4-(2,3,5-trifluorophenyl)imidazolidin-2-one]: the IC50 under setting [1] lay in the range of 100 to 1000 nM.

Turning to `CN1C(=O)N(c2ccc(-c3cn(C4CC4)c4ncnc(N)c34)c(F)c2)CC1c1cc(F)ccc1F` (single isomer, unassigned) [Example 145, 1-(4-(4-amino-7-cyclopropyl-7H-pyrrolo[2,3-d]pyrimidin-5-yl)-3-fluorophenyl)-4-(2,5-difluorophenyl)-3-methylimidazolidin-2-one], under setting [1], the IC50 is less than 100 nM.

As for `CN1C(=O)N(c2ccc(-c3cn(C4CC4)c4ncnc(N)c34)c(F)c2)CC1c1cc(F)ccc1F` (single isomer, unassigned) [Example 146, 1-(4-(4-amino-7-cyclopropyl-7H-pyrrolo[2,3-d]pyrimidin-5-yl)-3-fluorophenyl)-4-(2,5-difluorophenyl)-3-methylimidazolidin-2-one], the IC50 under setting [1] was less than 100 nM.

For the molecule `CN1C(=O)N(c2ccc(-c3cn(C)c4ncnc(N)c34)c(F)c2)CC1c1cc(F)ccc1F` (single isomer, unassigned) [Example 150, 1-(4-(4-amino-7-methyl-7H-pyrrolo[2,3-d]pyrimidin-5-yl)-3-fluorophenyl)-4-(2,5-difluorophenyl)-3-methylimidazolidin-2-one], the IC50 under setting [1] was less than 100 nM.

With `CN1C(=O)N(c2ccc(-c3cn(C)c4ncnc(N)c34)c(F)c2)CC1c1cc(F)ccc1F` (single isomer, unassigned) [Example 151, 1-(4-(4-amino-7-methyl-7H-pyrrolo[2,3-d]pyrimidin-5-yl)-3-fluorophenyl)-4-(2,5-difluorophenyl)-3-methylimidazolidin-2-one], under setting [1], the IC50 was 100 to 1000 nM.

For the molecule `CN1C(=O)N(c2ccc(-c3cn(C4CC4)c4ncnc(N)c34)c(F)c2)CC1c1cccc(Cl)c1` (single isomer, unassigned) [Example 152, 1-(4-(4-amino-7-cyclopropyl-7H-pyrrolo[2,3-d]pyrimidin-5-yl)-3-fluorophenyl)-4-(3-chlorophenyl)-3-methylimidazolidin-2-one], under setting [1], the IC50 was less than 100 nM.

For the origin of these results see patent publication US20180237441A1, “Chemical Compounds” (GlaxoSmithKline Intellectual Property (No.2) Limited, priority 2015, published 2018).
